Test results as given in patent US10206979B2, “Treatment agent for cognitive impairment induced by amyloid beta-protein, therapeutic agent for alzheimer's disease, and treatment method and pathological analysis method related to these” (NATIONAL UNIVERSITY CORPORATION OKAYAMA UNIVERSITY, priority 2013, dated 2019).
No end group written: not given here.

Key:
[1] = system: memory disorder induced by amyloid β protein oligomer; test: novel object recognition test in mouse model of memory disorder by administration of the amyloid β protein oligomer; format: in vivo, ICR mice; conditions: for ability to remember (exploration time for novel object vs familiar object): 1 μM amyloid β protein oligomer + 10 μM peptide in artificial cerebrospinal fluid, 3.5 μl/side to lateral ventricles, test session 24 h after training, paired t-test
Experimental: Preparation of a mouse model of memory disorder by administration of the amyloid β protein oligomer, and evaluation of the ability of memory acquisition by a novel object recognition test were carried out according to an earlier paper (Balducci et al., Proc Natl Acad Sci USA 107, 2295-2300, 2010).
ICR mice (6 to 7 weeks old) were anesthetized with ketamine (100 mg/kg) and xylazine (40 mg/kg), and each mouse was fixed on a brain stereotaxic apparatus. After removal of the scalp, small holes were made on the skull on the lateral ventricles, and guide cannulae (23 gage) were bilaterally embedded at the positions of ±1.0 mm lateral and 0.65 mm posterior to the bregma. The guide cannulae were fixed with a dental resin. After a period of four to five days for recovery from the surgery, each mouse was allowed to move freely for 10 minutes in order to allow acclimatization to the environment in a test cage (39 cm×22 cm) (habituation). This was continued for 3 days. On the next day, an artificial cerebrospinal fluid (control), artificial cerebrospinal fluid in Which 1 μM amyloid β protein oligomer is dissolved, or artificial cerebrospinal fluid in which 1 μM amyloid β protein oligomer and 10 μM p3-Alcβ37 peptide or a partial peptide thereof are dissolved, was bilaterally administered (3.5 μl/side) to the lateral ventricles through the guide cannulae embedded in the head, using an injection cannulae (30 gage, 1.7 mm from the brain surface).
Two hours after the administration, two identical objects (glass vials each having a plastic cap [objects A]: 3-cm diameter×6.5-cm height) were placed in the test cage for which the habituation had been carried out, such that the objects were positioned about 20 cm distant from each other. In the test cage, each mouse was allowed to move freely for 10 minutes to allow learning of the object A (training session). On the next day, 24 hours after the learning, a test was carried out to investigate if the mouse remembered the object A, which was presented on the previous day (test session). More specifically, in the same test cage, the object A presented on the previous day (that is, a familiar object) and a novel object (a metal cube [object B]: 4 cm×4 cm×4 cm) were placed at the same positions as those used on the previous day, and the mouse was allowed to move freely for 10 minutes in the test cage. In normal mice, since they naturally show interest in novel objects, the time for exploring the novel object (object B) is longer than the time for exploring the familiar object (object A). […] The exploratory behavior for each object was recorded using a video camera, and the total exploration time for each object was calculated. The time spent for contacting or approach of the head to the object (including sniffing), and contacting of a forelimb or hindlimb with the object was included in the exploration time. The ability of memory acquisition of the mice in each group was represented using the discrimination index. The discrimination index was defined as follows: ([exploration time for novel object]−[exploration time for familiar object ])/([exploration time for novel object]+[exploration time for familiar object]). In cases where discrimination between the novel object and the familiar object is impossible, the discrimination index is 0, while in cases where the exploration time for the novel object is longer than the exploration time for the familiar object, the discrimination index is positive. […] Therefore, the calculation of the exploration time and the discrimination index was carried out based on the behavior observed during the first 5 minutes after the placement of the mouse in the test cage.
In terms of the reagents used, the composition of the artificial cerebrospinal fluid was as follows: 137 mM NaCl, 3 mM KCl, 1 mM MgCl2, 1.2 mM CaCl2, 2.5 mM glucose, and 2 mM sodium phosphate buffer (pH 7.4). […]

[2] = system: memory disorder induced by MK-801 (NMDA receptor-dependent memory disorder); test: novel object recognition test in mouse model of memory disorder prepared by administration of NMDA receptor inhibitor MK-801; format: in vivo, ICR mice; conditions: 10 μM peptide to cerebral ventricle; (+)-MK-801 maleate 2 mg/kg intraperitoneally; paired t-test, P>0.05
Experimental: ICR mice (6 to 7 weeks old) were anesthetized with ketamine (100 mg/kg) and xylazine (40 mg/kg), and each mouse was fixed on a brain stereotaxic apparatus. After removal of the scalp, small holes were made on the skull on the lateral ventricles, and guide cannulae (23 gage) were bilaterally embedded at the positions of ±1.0 mm lateral and 0.65 mm posterior to the bregma. The guide cannulae were fixed with a dental resin. After a period of four to five days for recovery from the surgery, each mouse was allowed to move freely for 10 minutes in order to allow acclimatization to the environment in a test cage (39 cm×22 cm) (habituation). This was continued for 3 days. […]
Two hours after the administration, two identical objects (glass vials each having a plastic cap [objects A]: 3-cm diameter×6.5-cm height) were placed in the test cage for which the habituation had been carried out, such that the objects were positioned about 20 cm distant from each other. […] The exploratory behavior for each object was recorded using a video camera, and the total exploration time for each object was calculated. […]

Sequence	ability to remember (exploration time for novel object vs familiar object) [1]	discrimination index relative to the group in which the oligomer was administered ([1]; 1 μM oligomer + 10 μM peptide, lateral ventricles, Tukey test, P<0.01)	discrimination index relative to the group in which the artificial cerebrospinal fluid was administered ([1]; 1 μM oligomer + 10 μM peptide, lateral ventricles, Tukey test, P>0.05)	effect to ameliorate memory disorder (exploration time for novel object vs familiar object) [2]
VLSSQQFLHRGHQPPPEMAGHSLASSHRNSMIPSAAT (listed as Homo sapiens) [p3-Alcβ37, peptide composed of 37 amino acids produced by cleavage of Alcadein-β by γ-secretase and α-secretase]	remarkable recovery of the ability to remember	significant increase in the discrimination index	No significant difference in the discrimination index	effect to ameliorate memory disorder was not found
HRGHQPPPEMA (a part of p3-Alc beta 37 (position 9-19)) [p3-Alcβ37[9-19], partial peptide corresponding to positions 9 to 19 of p3-Alcβ37 (11 amino acids)]	ability to remember showed remarkable recovery	–	–	–
VLSSQQFLHRG (a part of p3-Alc beta 37 (position 1-11)) [p3-Alcβ37[1-11], partial peptide corresponding to positions 1 to 11 of p3-Alcβ37]	ability to remember remained impaired	–	–	–
VLSSQQFLHRGHOPPPEMA (VLSSQQFLHRGHQPPPEMA; not fully specified) [p3-Alcβ37 [1-19], partial peptide corresponding to positions 1 to 19 of p3-Alcβ37]	remarkable recovery of the ability to remember	–	–	–
GHSLASSHRNSMIPSAAT (a part of p3-Alc beta 37 (position 20-37)) [p3-Alcβ37 [20-37], partial peptide corresponding to positions 20 to 37 of p3-Alcβ37]	no recovery of the ability to remember	–	–	–
